Reference: article PMC3460366, “Synthesis and Antibacterial Evaluation of a New Series of N-Alkyl-2-alkynyl/(E)-alkenyl-4-(1H)-quinolones” (Molecules, 2012)
In brackets after ≈: the same amount, converted by molar mass. Several values for one entry are separate records, joined by “and”; a condition that tells them apart may be missing. Equal values may be shown once.

Experiments:
[1] = tested on: M. smegmatis (ATCC 14468); experiment: Microtiter broth dilution MIC against M. smegmatis (ATCC 14468); type: cell-based; conditions: Mycolicibacterium smegmatis, ATCC14468, 72 h, 37 °C, MTT
[2] = tested on: human diploid embryonic lung cell line MRC-5; experiment: XTT cytotoxicity assay on MRC-5 cells; type: cell-based; conditions: XTT
Experimental: In order to assess the cytotoxicity of these novel quinolone derivatives, the effect on the viability of a human lung fibroblast cell line MRC-5, was measured using XTT proliferation assay. […] In addition, the position of the triple bond in the side chain seems to have a significant influence on cytotoxcity which is increased in compounds with a triple bond more distant to the quinolone nucleus. This can be concluded by comparing results of 8l, 8n, 8p, and 8r having similar antimycobacterial activity on M. smegmatis but different cytotoxcity depending on triple bond position.
The cytotoxic activity of the synthetic compounds was determined by means of an XTT Cell Proliferation Kit II (Roche Diagnostics, Mannheim, Germany) using the human diploid embryonic lung cell line MRC-5 [11]. The quinolone derivatives were tested at concentrations of 100, 60, 30 and 10 µM in triplicate and the percentage of viable cells at each concentration was determined by comparing with the control.

M. phlei (ATCC 11758) = experiment: Broth dilution MIC against M. phlei; type: cell-based; conditions: Mycolicibacterium phlei, ATCC11758, 72 h
M. fortuitum (ATCC 6841) = experiment: Broth dilution MIC against M. fortuitum; type: cell-based; conditions: Mycolicibacterium fortuitum, ATCC6841, 72 h
M. smegmatis mc^2155 = experiment: Broth dilution MIC against M. smegmatis mc^2155; type: cell-based; conditions: Mycolicibacterium smegmatis, 72 h
[3] = tested on: M. bovis BCG (ATCC 35734); experiment: microbe, parasite or virus in culture; type: cell-based; conditions: Mycobacterium tuberculosis variant bovis BCG, 336 h, read-out: MIC M. bovis BCG
S. aureus EMRSA-15 = experiment: Broth dilution MIC against EMRSA-15; type: cell-based; conditions: Staphylococcus aureus, EMRSA15, 18 h
S. aureus EMRSA-16 = experiment: Broth dilution MIC against EMRSA-16; type: cell-based; conditions: Staphylococcus aureus, EMRSA16, 18 h

| Structure (SMILES) | MIC [1] | Metabolic active MRC-5 cells (%) ([2]; 10 µM) | Metabolic active MRC-5 cells (%) ([2]; 30 µM) | Metabolic active MRC-5 cells (%) ([2]; 60 µM) | Metabolic active MRC-5 cells (%) ([2]; 100 µM) | other results |
| --- | --- | --- | --- | --- | --- | --- |
| CCCCCCC#CCCc1cc(=O)c2ccccc2n1C [Compound 8a, 1-Methyl-2-(3′-decynyl)-4(1H)-quinolone] | 32 µg/mL and 108 µM | 100 ± 1.05% | 98.4 ± 1.07% | 97.5 ± 0.74% | 89.3 ± 2.94% | – |
| CCCCCCC#CCCc1cc(=O)c2ccccc2n1CC [Compound 8b, 1-Ethyl-2-(3'-decynyl)-4(1H)-quinolone] | 16 µg/mL and 51.8 µM | 102 ± 0.85% | 100 ± 0.73% | 98.4 ± 0.77% | 85.7 ± 1.96% | – |
| CCCCCCC#CCCc1cc(=O)c2ccccc2n1CCC [Compound 8c, 1-(n-Propyl)-2-(3′-decynyl)-4(1H)-quinolone] | 8 µg/mL and 24.8 µM | 103 ± 1.22% | 102 ± 0.42% | 100 ± 0.55% | 100 ± 1.45% | – |
| CCCCCCCC#CCCc1cc(=O)c2ccccc2n1C [Compound 8d, 1-Methyl-2-(3'-undecynyl)-4(1H)-quinolone] | 8 µg/mL and 25.9 µM | 101 ± 1.08% | 99.8 ± 0.52% | 98.7 ± 0.8% | 97.3 ± 0.66% | – |
| CCCCCCCC#CCCc1cc(=O)c2ccccc2n1CC [Compound 8e, 1-Ethyl-2-(3'-undecynyl)-4(1H)-quinolone] | 8 µg/mL and 24.8 µM | 102 ± 1.05% | 101 ± 1.42% | 100 ± 0.56% | 100 ± 1.05% | – |
| CCCCCCCC#CCCc1cc(=O)c2ccccc2n1CCC [Compound 8f, 1-(n-Propyl)-2-(3'-undecynyl)-4(1H)-quinolone] | 4 µg/mL and 11.9 µM | 100 ± 1.05% | 101 ± 1.28% | 91.7 ± 2.77% | 70.9 ± 8.50% | – |
| CCCCCCCCC#Cc1cc(=O)c2ccccc2n1CC [Compound 8g, 1-Ethyl-2-(1'-decynyl)-4(1H)-quinolone] | 2 µg/mL and 6.5 µM | 101 ± 0.97% | 98.7 ± 2.97% | 56.5 ± 2.03% | 12.1 ± 4.79% | MIC (M. phlei (ATCC 11758)): 4 µg/mL and 12.9 µM; MIC (M. fortuitum (ATCC 6841)): 8 µg/mL and 25.9 µM; MIC (M. smegmatis mc^2155): 4 µg/mL and 12.9 µM |
| CCCCCCCCC#Cc1cc(=O)c2ccccc2n1CCC [Compound 8h, 1-(n-Propyl)-2-(1'-decynyl)-4(1H)-quinolone] | 4 µg/mL and 12.4 µM | 103 ± 1.38% | 101 ± 2.47% | 39.5 ± 3.59% | 14.1 ± 7.83% | – |
| CCCCCCCCC#Cc1cc(=O)c2ccccc2n1CCCC [Compound 8i, 1-(n-Butyl)-2-(1'-decynyl)-4(1H)-quinolone] | 4 µg/mL and 11.9 µM | 103 ± 3.13% | 101 ± 0.81% | 67.2 ± 9.90% | 28.7 ± 8.95% | – |
| CCCCCCCCC#CCCc1cc(=O)c2ccccc2n1C [Compound 8j, 1-Methyl-2-(3'-dodecynyl)-4(1H)-quinolone] | 4 µg/mL and 12.4 µM | 97.6 ± 1.03% | 96.7 ± 1.49% | 95.1 ± 0.81% | 95.84 ± 0.96% | – |
| CCCCCCCCC#CCCc1cc(=O)c2ccccc2n1CC [Compound 8k, 1-Ethyl-2-(3'-dodecynyl)-4(1H)-quinolone] | 4 µg/mL and 11.9 µM | 97.6 ± 1.69% | 95.1 ± 1.04% | 94.7 ± 0.92% | 74.8 ± 1.99% | melting point: 66 to 68 °C |
| CCCCCCCCCCC#CCCc1cc(=O)c2ccccc2n1CC [Compound 8p, 1-Ethyl-2-(3'-tetradecynyl)-4(1H)-quinolone] | 1 µg/mL and 2.7 µM | 97.3 ± 1.37% | 95.4 ± 0.76% | 93.3 ± 1.13% | 8.75 ± 9.35% | MIC (M. phlei (ATCC 11758)): 2 µg/mL and 5.5 µM; MIC (M. fortuitum (ATCC 6841)): 4 µg/mL and 10.9 µM; melting point: 74 to 76 °C; MIC (M. smegmatis mc^2155): 1 µg/mL and 2.7 µM |
| CCCCCCCCCCCCC#CCCc1cc(=O)c2ccccc2n1C [Compound 8s, 1-Methyl-2-(3′-hexadecynyl)-4(1H)-quinolone] | 128 µg/mL and 338 µM | 93.9 ± 0.61% | 92.2 ± 0.70% | 58.9 ± 3.65% | 41.5 ± 9.49% | melting point: 58 to 61 °C |
| CCCCCCCCCCCCCC#Cc1cc(=O)c2ccccc2n1C [Compound 8t, 1-Methyl-2-(1'-pentadecynyl)-4(1H)-quinolone] | 128 µg/mL and 351 µM | 100 ± 1.01% | 100 ± 1.38% | 98.8 ± 1.28% | 93.8 ± 0.96% | – |
| O=c1cc(/C=C/CCCCCCCCCCBr)n(C2CC2)c2ccccc12 [Compound 18a, 1-Cyclopropyl-2-[(E)-12-bromodec-1'-enyl]-4(1H)-quinolone] | 8 µg/mL and 18.6 µM | – | – | – | – | melting point: 85 to 87 °C |
| O=c1cc(/C=C/CCCCCCCCCCCBr)n(C2CC2)c2ccccc12 [Compound 18b, 1-Cyclopropyl-2-[(E)-13-bromotridec-1'-enyl)-4(1H)-quinolone] | 8 µg/mL and 18.1 µM | – | – | – | – | melting point: 61 to 63 °C |
| Cn1c(/C=C/CCCCCCCCCCBr)cc(=O)c2ccccc21 [Compound 19a, 1-Methyl-2-[(E)-12-bromodec-1'-enyl]-4(1H)-quinolone] | 0.5 µg/mL (≈ 1.24 µM) | – | – | – | – | MIC (M. phlei (ATCC 11758)): 1 µg/mL and 2.5 µM; MIC (M. fortuitum (ATCC 6841)): 1 µg/mL and 2.5 µM; MIC (M. smegmatis mc^2155): 1 µg/mL and 2.5 µM |
| Cn1c(/C=C/CCCCCCCCCCCBr)cc(=O)c2ccccc21 [Compound 19b, 1-Methyl-2-[(E)-13-bromotridec-1'-enyl)-4(1H)-quinolone] | 0.5 µg/mL (≈ 1.19 µM) | – | – | – | – | MIC (M. phlei (ATCC 11758)): 1 µg/mL and 2.4 µM; MIC (M. fortuitum (ATCC 6841)): 1 µg/mL and 2.4 µM; MIC (M. smegmatis mc^2155): 1 µg/mL and 2.4 µM |
| CCCCCCCCCCC/C=C/c1cc(=O)c2ccccc2n1C1CC1 [Compound 22a, 1-Cyclopropyl-2-[(E)-1′-tridecenyl]-4(1H)-quinolone] | 128 µg/mL and 351 µM | – | – | – | – | melting point: 86 to 88 °C |
| CCCCCCCCCCCC/C=C/c1cc(=O)c2ccccc2n1C1CC1 [Compound 22b, 1-Cyclopropyl-2-[(E)-1′-tetradecenyl]-4(1H)-quinolone] | 128 µg/mL and 338 µM | – | – | – | – | melting point: 96 to 98 °C |
| CC[C@@H](CO)NCCN[C@@H](CC)CO [Ethambutol, reference compound] | 2 µg/mL and 9.8 µM | – | – | – | – | MIC (M. phlei (ATCC 11758)): 4 µg/mL and 19.6 µM; MIC (M. fortuitum (ATCC 6841)): 8 µg/mL and 39.2 µM; MIC (M. smegmatis mc^2155): 4 µg/mL and 19.6 µM |
| NNC(=O)c1ccncc1 [Isoniazid, reference compound] | 4 µg/mL and 29.2 µM | – | – | – | – | MIC (M. phlei (ATCC 11758)): 8 µg/mL and 58.3 µM; MIC [3]: 0.1 µg/mL and 0.7 µM; MIC (M. fortuitum (ATCC 6841)): 2 µg/mL and 14.6 µM; MIC (M. smegmatis mc^2155): 4 µg/mL and 29.2 µM |
| CCn1cc(C(=O)O)c(=O)c2cc(F)c(N3CCNCC3)cc21 [Norfloxacin, reference compound] | – | – | – | – | – | MIC (S. aureus EMRSA-15): 0.5 µg/mL and 1.6 µM; MIC (S. aureus EMRSA-16): 128 µg/mL and 401 µM |
| CN(C)[C@@H]1C(O)=C(C(N)=O)C(=O)[C@@]2(O)C(O)=C3C(=O)c4c(O)cccc4[C@@](C)(O)[C@H]3C[C@@H]12 [Tetracycline, reference compound] | – | – | – | – | – | MIC (S. aureus EMRSA-15): 0.25 µg/mL and 0.6 µM; MIC (S. aureus EMRSA-16): 0.25 µg/mL and 0.6 µM |
| CC[C@]1(O)C[C@@H]2CN(CCc3c([nH]c4ccccc34)[C@@](C(=O)OC)(c3cc4c(cc3OC)N(C)[C@H]3[C@@](O)(C(=O)OC)[C@H](OC(C)=O)[C@]5(CC)C=CCN6CC[C@]43[C@@H]65)C2)C1 [Vinblastin, reference compound] | – | – | – | – | – | Metabolic active MRC-5 cells (%) ([2]; 0.12 µM (positive control)): 51.5 ± 2.36% |
